# From patent publication US20120083522A1, “MODULATION OF INFLAMMATORY RESPONSES BY FACTOR XI” (Isis Pharmaceuitcals, inc., priority 2009, published 2012)
# In the oligonucleotide strings, read from the 5' end, every base follows the letter of its sugar. An asterisk marks phosphorothioate; unmarked linkages are phosphodiester. Other units and linkages are bracketed, terminal groups are in braces. A string of capitals states the bases alone. e = 2'-O-(2-methoxyethyl) (MOE); [5mC] = 5-methylcytosine; d = 2'-deoxy (DNA)
# Tests used:
# human Factor XI mRNA = experiment: Antisense inhibition of human Factor XI in HepG2 cells, 75 nM, lipofectin (Example 1); format: cell-based; conditions: HepG2, 75 nM, approximately 24 hours, gapmers targeted to SEQ ID NO: 1, relative to untreated control cells
# Procedure: Antisense oligonucleotides targeted to a Factor XI nucleic acid were tested for their effects on Factor XI mRNA in vitro. Cultured HepG2 cells at a density of 10,000 cells per well were transfected using lipofectin reagent with 75 nM antisense oligonucleotide. After a treatment period of approximately 24 hours, RNA was isolated from the cells and Factor XI mRNA levels were measured by quantitative real-time PCR. Factor XI mRNA levels were adjusted according to total RNA content, as measured by RIBOGREEN®. Results are presented as percent inhibition of Factor XI, relative to untreated control cells.
# The chimeric antisense oligonucleotides in Tables 1 and 2 were designed as 5-10-5 MOE gapmers. The gapmers are 20 nucleotides in length, wherein the central gap segment is comprised of 10 2′-deoxynucleotides and is flanked on both sides (in the 5′ and 3′ directions) by wings comprising 5 nucleotides each. Each nucleotide in the 5′ wing segment and each nucleotide in the 3′ wing segment has a 2′-MOE modification. The internucleoside linkages throughout each gapmer are phosphorothioate (P═S) linkages. All cytidine residues throughout each gapmer are 5-methylcytidines. “Target start site” indicates the 5′-most nucleotide to which the gapmer is targeted. “Target stop site” indicates the 3′-most nucleotide to which the gapmer is targeted. […]
# [1] = Cynomolgus monkeys: body and organ weights (Example 30); format: in vivo; conditions: day 55
# Procedure: (§1) Groups, each consisting of two male and two female monkeys, were injected subcutaneously with 25 mg/kg of ISIS 416850, ISIS 449709, ISIS 445522, ISIS 449710, ISIS 449707, ISIS 449711, ISIS 449708, 416858 and ISIS 445531. Antisense oligonucleotide was administered to the monkeys at 25 mg/kg three times per week for week 1 and 25 mg/kg twice per week for weeks 2 to 8. A control group, consisting of two male and two female monkeys was injected subcutaneously with PBS according to the same dosing regimen. Body weights were taken 14 days and 7 days before the start of treatment and were then measured weekly throughout the treatment period. Blood samples were collected 14 days and 5 days before the start of treatment and subsequently several times during the dosing regimen for measurement of various hematologic factors. On day 55, the monkeys were euthanized by exsanguination while under deep anesthesia, and organs harvested for further analysis.
# Organ weights were taken after the animals were euthanized on day 55, and livers, kidneys and spleens were harvested.
# [2] = tested on: IL-1β, IL-6, IFN-γ, TNF-α, IL-8, MIP-1α, MCP-1, MIP-10, RANTES; experiment: Cynomolgus monkeys: cytokine and chemokine assays (Example 30); format: in vivo
# Procedure: as §1
# Blood samples obtained from all monkey groups were sent to Pierce Biotechnology (Woburn, Mass.) for measurements of chemokine and cytokine levels. Levels of IL-1β, IL-6, IFN-γ, and TNF-α were measured using the respective primate antibodies and levels of IL-8, MIP-1α, MCP-1, MIP-10 and RANTES were measured using the respective cross-reacting human antibodies. Measurements were taken 14 days before the start of treatment and on day 55, when the monkeys were euthanized.
# [3] = tested on: collagen-induced arthritis model; experiment: Arthritis Study B: collagen-induced arthritis, clinical effects (Example 11); format: in vivo, DBA/1J mice
# Procedure: The effect of inhibition of Factor XI and its role in fibrin accumulation in the joints leading to joint inflammation and rheumatoid arthritis was evaluated in a murine collagen-induced arthritis (CIA) model. […] Arthritis induced in mice administered collagen can be visually assessed and clinically scored as described by Marty et al. (J Clin Invest, 107:631-640, 2001) where 1 point is given for each swollen digit except the thumb (maximum, 4), 1 point is given for the tarsal or carpal joint, and 1 point is given for the metatarsal or metacarpal joint with a maximum score of […]. Each paw was graded individually, the cumulative clinical arthritic score per mouse reaching a maximum of 22 points
# (§2) In a group of 20 DBA/1J mice, 20 mg/kg of ISIS 404071 were injected subcutaneously twice a week for ten weeks. In a second group of 20 DBA/1J mice, 20 mg/kg of ISIS 404057 were injected subcutaneously twice a week for ten weeks. In a third control group of 20 DBA/1J mice, 20 mg/kg of ISIS 421208 were injected subcutaneously twice a week for ten weeks. Two control groups of 20 mice each were injected with PBS twice a week for ten weeks.
# Two and a half weeks after the first oligonucleotide dose, type II bovine collagen in complete Freund's adjuvant was injected subcutaneously at the base of the tail in all the experimental groups and one PBS control group. A booster injection containing 100 μg collagen type II in incomplete Freund's adjuvant was injected subcutaneously at the base of the tail at a different injection site on day 21 after the first collagen injection in these groups.
# (§3) Mice in all groups were examined daily after day 30 after the first collagen injection for the visual appearance of arthritis in peripheral joints. The results in Table 22 are expressed as percent change compared to the PBS control except for the liver and spleen weight.
# Factor XI mRNA = experiment: Arthritis Study B: liver Factor XI mRNA; format: in vivo, DBA/1J mice; conditions: FIG. 4B
# Procedure: as §2, §3
# The difference between the effective of the two Factor XI antisense oligonucleotides may be related to the relative effectiveness of each oligonucleotide in inhibiting Factor XI mRNA as shown in FIG. 4B.
# [4] = tested on: DSS-induced colitis model; experiment: Colitis Study B: body weight and colon length; format: in vivo, Swiss Webb mice; conditions: for Body weight / Colon length: DSS-induced colitis, day 7, 20 mg/kg s.c. twice a week for 3 weeks, percent change compared to the PBS control
# Procedure: (§4) In a first group of 8 Swiss Webb mice, 20 mg/kg of ISIS 404071 was injected subcutaneously twice a week for 3 weeks. In a second group of 8 Swiss Webb mice, 20 mg/kg of ISIS 404057 was subcutaneously injected twice a week for 3 weeks. In a third control group of 8 Swiss Webb mice, 20 mg/kg of ISISI 421208 was injected subcutaneously twice a week for 3 weeks. Two control groups of 8 mice each were injected with PBS twice a week for 3 weeks. After the oligonucleotide treatment, 4% DSS in water was administered ad libitum for 6 days to all the experimental groups and one PBS control group.
# (§5) Mice in all groups were weighed at day 0 and daily after administration of DSS. Mice were sacrificed at the end of the study on day 7 after DSS was administered, their livers and colons were harvested for RNA analysis, and their body weights and colon lengths were measured.
# murine Factor XI mRNA [5] = experiment: Colitis Study B: Factor XI mRNA in the liver; format: in vivo, Swiss Webb mice; conditions: DSS-induced colitis, day 7, 20 mg/kg s.c. twice a week for 3 weeks, percent change compared to the PBS control
# Procedure: as §4, §5
# RT-PCR analysis of Factor XI mRNA was performed. As presented in Table 27 and FIG. 10, antisense oligonucleotides targeting Factor XI achieved statistically significant dose-dependent reduction of murine Factor XI over the PBS control in the liver. All the measurements are normalized to cyclophilin.
# All the results in Table 27 are expressed as percent change compared to the PBS control.
# murine Factor XI mRNA [6] = experiment: In vivo antisense inhibition of murine Factor XI: liver RNA analysis (Example 10); conditions: BALB/c mice, relative to PBS control
# Procedure: Several antisense oligonucleotides targeted to murine Factor XI mRNA (GENBANK Accession No. NM_028066.1, incorporated herein as SEQ ID NO: 6) showing statistically significant dose-dependent inhibition from the in vitro study were evaluated in vivo. BALB/c mice were treated with ISIS 404057 ([…], target start site 487, incorporated herein as SEQ ID NO: 10) and ISIS 404071 ([…], target start site 869, incorporated herein as SEQ ID NO: 11).
# BALB/c mice were injected with 5 mg/kg, 10 mg/kg, 25 mg/kg, or 50 mg/kg of ISIS 404057 or ISIS 404071 twice a week for 3 weeks. A control group of mice was injected with phosphate buffered saline (PBS) twice a week for 3 weeks. Mice were sacrificed 5 days after receiving the last dose. Whole liver was harvested for RNA analysis and plasma was collected for protein analysis.
# RNA was extracted from liver tissue for real-time PCR analysis of Factor XI. […] Results are presented as percent inhibition of Factor XI, relative to control.
# [7] = tested on: OVA/alum-induced asthma model; experiment: OVA-induced asthma model: BAL eosinophil recruitment (Example 13); format: in vivo, BALB/c mice; conditions: percentage of total cells in BAL, 50 mg/kg s.c. twice a week for 4 weeks
# Procedure: The effect of antisense oligonucleotide inhibition of Factor XI and its role in ameliorating asthma was evaluated in an OVA/alum-induced asthma model. Administration of ovalbumin to animals is a well known method to induce […] and has been previously described by Henderson et al. (J. Exp. Med., 1996, 184: 1483-1494).
# (§6) The mice were divided into four treatment groups of 5 mice each. One group received subcutaneous injections of ISIS 404071 at a dose of 50 mg/kg twice a week for 4 weeks. One group of mice received subcutaneous injections of control oligonucleotide, ISIS 421208, which is a mismatch oligonucleotide sequence of ISIS 404071, at a dose of 50 mg/kg twice a week for 4 weeks. Two groups of mice received subcutaneous injections of PBS twice a week for 4 weeks. One PBS group remained untreated and served as the control group. The second PBS group and both the oligonucleotide treated groups were injected with OVA/alum on days 0 and 14 and nebulized with OVA in PBS on days 24, 25, and 26. The first OVA application served to sensitize the mice against OVA while the second was a challenge application to provoke an asthmatic reaction. Two days following the final dose, the mice were euthanized, bronchial lavage (BAL) was collected and analyses done.
# Bronchial asthma, even in its mild form, is characterized by local infiltration and activation of inflammatory and immunoeffector cells, including T lymphocytes, macrophages, eosinophils, and mast cells (Smith D. L. et al., Am. Rev. Respir. Dis. 1993. 148: 523-532). The effect of treatment with ISIS 404071 on bronchoalveolar lavage (BAL) eosinophil recruitment was assessed. BAL cells were stained with hemotoxylin and eosin (H&E). The results are presented in Table 49 as a percentage of total cells in BAL.
# [8] = Arthritis Study B: liver and spleen weight, ALT, AST; format: in vivo; conditions: collagen-treated DBA/1J mice, 20 mg/kg s.c. twice a week for ten weeks
# Procedure: as §2, §3
# [9] = tested on: OVA/alum-induced asthma model; experiment: OVA-induced asthma model: mucus production (Example 13); format: in vivo, BALB/c mice; conditions: BALB/c mice, 50 mg/kg s.c. twice a week for 4 weeks, PAS stain of lung sections
# Procedure: as §6
# Lung sections were stained with periodic acid […] (PAS) base stain that stains mucus, which is produced during asthma attacks (Rogers, D. F. Curr. Opin Pharmacol. 2004. 4: 241-250). The number of airways containing mucus as a percentage of the total airways in the lungs was evaluated.
# [10] = day −14 (before start of treatment)
# [11] = DBA/1J mice, 20 mg/kg s.c. twice a week for ten weeks, end of study
substance,measurement,setting,value
412213 (antisense eA*eA*eA*e[5mC]*eA*dA*dG*d[5mC]*dA*dA*d[5mC]*d[5mC]*dG*dG*dG*eA*eT*eG*eA*eT) [compound 412213],% inhibition,human Factor XI mRNA,71%
ISIS 449711: microwalk gapmer of Table 53 (antisense eA*e[5mC]*dA*dG*dT*dT*dT*d[5mC]*dT*dG*dG*d[5mC]*eA*eG),spleen weight (in words),[1],caused increase in spleen weight
same,IL-1β level,"[2]; 25 mg/kg s.c., day 55",146 pg/mL
same,MIP-1β level,"[2]; 25 mg/kg s.c., day 55",91 pg/mL
same,IL-1β level,[2]; [10],79 pg/mL
same,MIP-1β level,[2]; [10],24 pg/mL
"TCCTGGCATTCTCGAGCATT (eT*e[5mC]*e[5mC]*eT*eG*dG*d[5mC]*dA*dT*dT*d[5mC]*dT*d[5mC]*dG*dA*eG*e[5mC]*eA*eT*eT) [ISIS 404057, 5-10-5 MOE gapmer targeting murine Factor XI, target start site 487]",amount of arthritis assessed (in words),"[3]; Arthritis Study B, 20 mg/kg twice a week for ten weeks, compared to untreated mice",did not affect the amount of arthritis
same,Factor XI inhibition in liver (in words),Factor XI mRNA,lack of Factor XI inhibition
same,body weight (in words),"[4]; Colitis Study B, FIG. 9",did not have any significant change in body weight
same,Body weight,[4],−16%
same,Colon length,[4],−11%
same,Liver Factor XI mRNA,murine Factor XI mRNA [5],−50%
same,% inhibition,murine Factor XI mRNA [6]; 5 mg/kg twice a week for 3 weeks,40%
same,% inhibition,murine Factor XI mRNA [6]; 10 mg/kg twice a week for 3 weeks,64%
same,% inhibition,murine Factor XI mRNA [6]; 25 mg/kg twice a week for 3 weeks,85%
same,% inhibition,murine Factor XI mRNA [6]; 50 mg/kg twice a week for 3 weeks,95%
"TCGGAAGC GACTCTTATATG (eT*e[5mC]*eG*eG*eA*dA*dG*d[5mC]*dG*dA*d[5mC]*dT*d[5mC]*dT*dT*eA*eT*eA*eT*eG) [ISIS 421208, control oligonucleotide for ISIS 404071 with 8 mismatches, 5-10-5 MOE gapmer, reference compound]",% of CIA,[3]; [11],81%
same,% of paws affected,[3]; [11],45%
same,Average no. of paws affected,[3]; [11],1.7
same,Clinical severity of CIA,[3]; [11],7.75
same,Eosinophils,[7],51%
same,Body weight,[4],−10%
same,Colon length,[4],−33%
same,Liver ALT,[8],70.06
same,Liver AST,[8],165.12
same,Liver Weight as a % of Body Weight,[8],6.14%
same,Spleen Weight as a % of Body Weight,[8],0.718 % of Body Weight
same,Liver Factor XI mRNA,murine Factor XI mRNA [5],+25%
same,"Mucus production, % airways containing mucus",[9],49 % airways
